{"source": "patent US20080194530A1", "about": "“Chemical Compounds” (Phytopharm PLC, priority 2004, published 2008)", "key": {"[1]": {"experiment": "Solid-state stability of crystalline forms on exposure to humidity", "format": "physicochemical"}, "[2]": {"experiment": "Desolvation / dehydration of crystalline forms on drying or heating", "format": "physicochemical", "conditions": "for temperature of heating/drying at which the form is converted to non-solvated non-hydrated form B: desolvation or dehydration to form B"}}, "data": [{"smiles": "C[C@H]1CC[C@@]2(OC1)O[C@H]1C[C@H]3[C@@H]4CC[C@@H]5C[C@@H](O)CC[C@]5(C)[C@H]4CC[C@]3(C)[C@H]1[C@@H]2C", "note": "[form H, sarsasapogenin]", "values": [{"measurement": "form change on storage", "setting": "[1]; 40° C. and 75% relative humidity for 18 days", "result": "furnish form I"}]}, {"smiles": "C[C@H]1CC[C@@]2(OC1)O[C@H]1C[C@H]3[C@@H]4CC[C@@H]5C[C@@H](O)CC[C@]5(C)[C@H]4CC[C@]3(C)[C@H]1[C@@H]2C", "note": "[form A, sarsasapogenin]", "values": [{"measurement": "stability with respect to further drying", "setting": "[2]; after filtration and initial drying", "result": "reasonable stability"}, {"measurement": "temperature of heating/drying at which the form is converted to non-solvated non-hydrated form B", "setting": "[2]; listed as hemi acetone solvate", "result": "80-100 °C"}, {"measurement": "form change on exposure to humidity", "setting": "[1]; humidity of 50% or greater", "result": "led to the formation of form C"}]}, {"smiles": "CC1CCC2(OC1)O[C@H]1CC3C4CC[C@@H]5C[C@@H](O)CC[C@]5(C)C4CC[C@]3(C)C1[C@@H]2C", "note": "(stereo partly drawn) [form D, sarsasapogenin]", "values": [{"measurement": "solvate stoichiometry on filtration and drying", "setting": "[2]", "result": "variable stoichiometry"}]}, {"smiles": "C[C@H]1CC[C@@]2(OC1)O[C@H]1C[C@H]3[C@@H]4CC[C@@H]5C[C@@H](O)CC[C@]5(C)[C@H]4CC[C@]3(C)[C@H]1[C@@H]2C", "note": "[form C, sarsasapogenin]", "values": [{"measurement": "temperature of heating/drying at which the form is converted to non-solvated non-hydrated form B", "setting": "[2]", "result": "40-60 °C"}]}]}
